From patent publication US6979673B1, “Method and compositions for modulating somatolactogenic functions” (Trustees of the University of Pennsylvania, priority 1999, dated 2005)

What was measured:
Nb2 cells [1] = assay: PRL-driven proliferation of Nb2 cells (3H-thymidine); format: cell-based, rat; conditions: for enhancement of PRL-driven growth vs cultures that received only PRL: Nb2 cells, biphasic, most prominent at 5–10 mM CypB and 50 pM PRL
Procedure: (§1) The effect of exogenous CypB on PRL-driven proliferation was examined with the rat Nb2 T-cell and the human T47D breast cancer line. […] This dose-dependent biphasic effect was most prominent at physiologic concentrations ([…]) of CypB and PRL (50 pM) found in human serum. […] To determine the effect of CypB on cellular growth driven by the larger family of cytokines, to which PRL belongs, proliferation driven by interleukin-2 (IL-2), IL-3 and GH was examined.
(§2) Nb2-cells (5×10^4; PRL-dependent, rat T-lymphoma) were plated in each well of 96 well plates in a defined DMEM-serum free medium (0.1 mM 2-mercaptoethanol, 1% penicillin/streptomycin, and 1% ITS+ (Calbiochem)). Cells were rested for 24 hours at 37° C. in this defined medium in the absence of PRL before the addition of 5–500 pM PRL (either as human pituitary isolated PRL, National Hormone and Pituitary Program, NIDDK; recombinant human PRL from E. coli, Genzyme; or recombinant human PRL from Drosophila S2 cells) alone or premixed with 1–2000 fold excess of purified CypB. Parallel studies were performed using human pituitary-derived GH (National Hormone and Pituitary Program, NIDDK). Cultures were incubated for 48 hours at 37° C. and proliferation was evaluated by the addition of 0.5 μCi of ^3H-thymidine for four hours followed by harvesting and scintillography. When stimulated with PRL alone, Nb2 cells yield sigmoid shaped growth curves that plateau at approximately 2 ng PRL/ml.

PRL [2] = molecular target: T1, PRL (Homo sapiens, UniProt P01236); assay: Co-immunoprecipitation of admixed purified epitope-tagged proteins; format: binding; parameters: Full length PRL cDNA was generated by PCR; made in house; host or cells: Drosophila S2 cells (pAc5/V5-HisA); conditions: reducing agent or divalent cation facilitated the interaction
T1 sequence (P01236 29-227): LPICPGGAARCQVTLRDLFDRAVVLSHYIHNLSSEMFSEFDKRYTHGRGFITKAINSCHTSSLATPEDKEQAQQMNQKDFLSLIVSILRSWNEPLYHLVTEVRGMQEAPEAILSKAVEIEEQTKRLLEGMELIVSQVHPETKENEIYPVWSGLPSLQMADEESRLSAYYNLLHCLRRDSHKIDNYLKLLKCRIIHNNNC

Nb2 cells [3] = assay: GH-driven proliferation; format: cell-based, rat; conditions: physiological concentrations of CypB
Procedure: as §1
as §2, with “When stimulated with PRL alone, Nb2 cells yield sigmoid shaped growth curves that plateau at approximately 2 ng PRL/ml.” left out

[4] = test system: IL-2-driven proliferation; assay: IL-2-driven proliferation; format: cell-based; conditions: varying concentration of CypB
Procedure: as §1

[5] = test system: IL-3-driven proliferation; assay: IL-3-driven proliferation; format: cell-based; conditions: varying concentration of CypB
Procedure: as §1

[6] = test system: T47D human breast cancer cells; assay: Nuclear retrotranslocation of PRL, anti-PRL indirect immunofluorescence; format: cell-based; conditions: added to defined T47D culture medium; CypB added to EGF-containing medium
Procedure: Experiments were performed to examine the ability of CypB to enhance nuclear retrotranslocation of PRL, and thereby PRL-driven proliferation.
The role of this sequence in the CypB-mediated retrotranslocation of PRL, and its associated enhancement of growth was tested by mutagenic approaches. The putative nuclear localization sequence of CypB was deleted in the mutant CypB-NT.

PRL [7] = molecular target: T1, PRL; assay: Co-immunoprecipitation of PRL with CypB from human serum; format: binding

direct interaction with PRL (co-immunoprecipitation) (PRL [2]) | Substance | enhancement of PRL-driven growth vs cultures that received only PRL (Nb2 cells [1]) | enhancement of PRL-induced proliferation (Nb2 cells [1]; cell line not given) | enhancement of GH-driven proliferation vs GH alone (Nb2 cells [3]) | effect on IL-2-driven proliferation [4] | effect on IL-3-driven proliferation [5] | T47D nuclei exhibiting anti-PRL immunofluorescence [6] | co-immunoprecipitation of PRL from human serum (PRL [7])
failed to interact | CypA: recombinant form of the highly homologous cyclophilin family member CypA [reference compound] | did not result in any potentiation | – | – | – | – | – | –
interact directly | CypB: cyclophilin B, peptidyl prolyl isomerase, GenBank NM 000942, SEQ ID NO: 1; recombinant His-tagged | eight-fold | failed to enhance | forty-fold | Neither IL-2- nor IL-3-driven proliferation was altered | Neither IL-2- nor IL-3-driven proliferation was altered | 95–100% | direct co-immunoprecipitation of PRL with CypB from human serum
